Tested on: SALL4
Test: SALL4 RNA knock-down in primary AML cells (qRT-PCR)
Assay type: cell-based, human
Conditions: qRT-PCR normalized to GAPDH
Text: FIG. 6: Down-regulation of SALL4 in primary AML led to cell death. (6A) Down-regulation of SALL4 in primary AML cells. The ability of shRNA constructs 7412 to knock down SALL4 mRNA in AML cells were confirmed by qRT-PCR with normalization to GAPDH. The expression of SALL4 RNA in AML cells that were infected with SALL4 shRNA (7412)-expressing retroviruses was reduced to 35% of those infected with scrambled pRS control vectors, a shRNA pRS against non-effective GFP sequence from OriGene Technologies, Inc., Rockville Md. (N=3, Error Bars: +/−SD). (6B) Increased apoptosis and cell death were observed via flow cytometry in AML cells upon SALL4 knock down by Annexin V/PI staining. Control scrambled shRNA-infected cells and SALL4 shRNA-infected cells were analyzed 24 to 48 h post transduction. Data were derived from four independent experiments. (6C-6F) Leukemia development in xenotransplant recipient mice. AML is defined as blast count more than 20% in peripheral blood and/or bone marrow with multiple organ involvements observed in recipient mice. Blasts were present in liver (6C, ×200), spleen (6D, ×200), and bone marrow (6E, ×200), and were human CD45 positive (6F). […]

## GATGCCTTGAAACAAGCCAAGCTACCTCA (chemistry not given here) [compound 7412, SALL4 shRNA used in primary AML cells]
  SALL4 RNA expression relative to scrambled control: 35%

— patent US9365851B2, “Spalt-like transcription factor 4 (SALL4) and uses thereof” (National University of Singapore, priority 2011, dated 2016)
